Data published in publication PMC6345968, “Structural basis for species-selective targeting of Hsp90 in a pathogenic fungus” (Nature Communications, 2019).
Where “and” joins values, the source holds several entries; their conditions need not be identical. Equal values may be shown once. Read-outs that look alike come from different tables or passages of the source.

How the values were obtained:
[1] = test system: Hsp90 in HEPG2 lysate; conditions: for FP signal / FP signal (raw): HepG2 lysate; for FP signal: raw
[2] = test system: Hsp90 in 3T3 lysate; test: FP competition in whole-cell lysate; assay type: binding, mouse; conditions: 3T3 lysate
Method: After vortexing, cell lysate was frozen at −80 °C for 2 h, followed by thawing on ice. The vortex-freeze-thaw step was repeated. […] Aliquots were thawed immediately prior to use.

[3] = molecular target: T1, Hsp90 in C. albicans (SC5314) lysate (Candida albicans, UniProt P46598); test: biochemical; assay type: binding; conditions: for FP signal: raw
T1 construct: endogenous in cells; host or cells: C. albicans SC5314 whole-cell lysate
T1 sequence (P46598 whole entry): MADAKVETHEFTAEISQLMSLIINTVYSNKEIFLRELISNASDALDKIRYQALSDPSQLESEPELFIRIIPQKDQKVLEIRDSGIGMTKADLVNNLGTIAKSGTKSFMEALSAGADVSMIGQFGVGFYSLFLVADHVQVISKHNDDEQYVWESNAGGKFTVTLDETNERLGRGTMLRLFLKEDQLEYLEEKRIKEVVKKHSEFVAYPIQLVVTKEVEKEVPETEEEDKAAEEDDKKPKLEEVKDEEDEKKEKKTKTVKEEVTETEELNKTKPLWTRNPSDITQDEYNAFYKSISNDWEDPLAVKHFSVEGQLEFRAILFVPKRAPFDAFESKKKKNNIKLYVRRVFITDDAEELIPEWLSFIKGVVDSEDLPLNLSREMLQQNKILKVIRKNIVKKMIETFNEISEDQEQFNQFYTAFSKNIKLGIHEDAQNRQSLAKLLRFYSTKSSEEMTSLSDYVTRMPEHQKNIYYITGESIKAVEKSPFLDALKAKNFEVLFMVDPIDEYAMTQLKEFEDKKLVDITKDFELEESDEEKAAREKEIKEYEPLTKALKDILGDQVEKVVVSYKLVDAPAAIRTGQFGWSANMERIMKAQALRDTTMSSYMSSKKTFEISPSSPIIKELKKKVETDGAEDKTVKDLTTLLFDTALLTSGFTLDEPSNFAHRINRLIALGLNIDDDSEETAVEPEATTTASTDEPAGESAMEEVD

[4] = molecular target: T2, C. albicans Hsp90 NBD (Candida albicans, UniProt P46598); test: biochemical; assay type: binding; conditions: 0.1 nM Cy3-GdA, C. albicans NBD-Hsp90 (10 nM)
T2 construct: C. albicans Hsp90 (E7-K218); made in house; host or cells: E. coli Rosetta2
T2 sequence (P46598 7-218): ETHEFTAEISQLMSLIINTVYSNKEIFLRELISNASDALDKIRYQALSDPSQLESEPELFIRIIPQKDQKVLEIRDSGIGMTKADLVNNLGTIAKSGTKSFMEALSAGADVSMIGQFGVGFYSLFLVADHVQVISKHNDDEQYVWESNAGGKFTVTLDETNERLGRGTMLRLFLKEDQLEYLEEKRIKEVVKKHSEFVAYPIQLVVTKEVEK

[5] = molecular target: human Grp94 NBD (Homo sapiens, UniProt P14625); conditions: 0.1 nM Cy3-GdA, Experiments 1-3
human Grp94 NBD, sequence (P14625 63-337): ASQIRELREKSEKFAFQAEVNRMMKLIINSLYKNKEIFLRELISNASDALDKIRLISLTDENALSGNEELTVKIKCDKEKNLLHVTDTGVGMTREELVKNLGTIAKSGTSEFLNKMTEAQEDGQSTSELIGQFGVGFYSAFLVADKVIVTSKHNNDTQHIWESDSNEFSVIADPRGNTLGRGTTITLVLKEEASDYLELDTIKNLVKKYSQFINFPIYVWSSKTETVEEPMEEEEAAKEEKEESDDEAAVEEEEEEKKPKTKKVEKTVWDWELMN

[6] = molecular target: human Hsp90 NBD (Homo sapiens, UniProt P08238); conditions: 0.1 nM Cy3-GdA, Human NBD-Hsp90 (10 nM); for FP signal (raw) / FP signal as fraction of no-compound (0 uM) control: Experiments 1-3
human Hsp90 NBD, sequence (P08238 1-223): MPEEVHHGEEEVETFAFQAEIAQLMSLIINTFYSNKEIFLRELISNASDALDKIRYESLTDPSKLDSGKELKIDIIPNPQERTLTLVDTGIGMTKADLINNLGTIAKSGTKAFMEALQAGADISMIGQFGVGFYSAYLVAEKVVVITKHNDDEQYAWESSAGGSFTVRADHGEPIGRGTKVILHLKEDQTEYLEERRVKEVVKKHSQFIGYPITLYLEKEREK

[7] = read-out: FP signal, fraction of control
[8] = Experiments 1-3, one value per experiment

COC1=C2C[C@@H](C)C[C@H](OC)[C@H](O)[C@@H](C)/C=C(\C)[C@H](OC(N)=O)[C@@H](OC)/C=C\C=C(/C)C(=O)NC(=CC1=O)C2=O [geldanamycin, reference compound]
Rel. to GdA ([1]; EC50 relative to GdA, HEPG2 lysate): 1
FP signal ([1]; 37.037 nM compound): 93
FP signal (raw) ([1]; 37.037 nM, listed as GdA): 93
FP signal ([1]; 111.111 nM compound): 59
FP signal (raw) ([1]; 111.111 nM, listed as GdA): 59 and 55
FP signal (raw) ([1]; 0.25 uM): 27
FP signal ([1]; 333.333 nM compound): 40
FP signal (raw) ([1]; 333.333 nM, listed as GdA): 40 and 41
FP signal (raw) ([1]; 0.5 uM): 9
FP signal (raw) ([1]; 1 uM): 5
FP signal ([1]; 1000 nM compound): 35
FP signal (raw) ([1]; 1000 nM, listed as GdA): 35 and 32
FP signal (raw) ([1]; 2 uM): -5
FP signal ([1]; 3000 nM compound): 30
FP signal (raw) ([1]; 3000 nM, listed as GdA): 30 and 27
FP signal (raw) ([2]; 0.002 uM): 254
FP signal (raw) ([2]; 0.004 uM): 250
FP signal (raw) ([2]; 0.008 uM): 250
FP signal (raw) ([2]; 0.016 uM): 252
FP signal (raw) ([2]; 0.063 uM): 213
FP signal (raw) ([2]; 0.25 uM): 76
FP signal (raw) ([2]; 0.5 uM): 34
FP signal (raw) ([2]; 1 uM): 23
Rel. to GdA ([3]; EC50 relative to GdA, SC5314 lysate): 1
FP signal ([3]; SC5314 lysate, 0.457 nM compound): 205
FP signal (raw) ([3]; SC5314 lysate, 0.457 nM, listed as GdA): 205
FP signal ([3]; SC5314 lysate, 1.372 nM compound): 198
FP signal (raw) ([3]; SC5314 lysate, 1.372 nM, listed as GdA): 198 and 206
remaining activity at 0.002 µM ([3]; SC5314 lysate, 0.002 uM, read-out: FP signal, fraction of control): 96.8%
remaining activity at 0.004 µM ([3]; SC5314 lysate, 0.004 uM, read-out: FP signal, fraction of control): 95.7%
remaining activity at […] ([3]; SC5314 lysate, 0.031 uM, read-out: FP signal, fraction of control): 59.4%
FP signal ([3]; SC5314 lysate, 37.037 nM compound): 78
FP signal (raw) ([3]; SC5314 lysate, 37.037 nM, listed as GdA): 78 and 81
FP signal (raw) ([3]; SC5314 lysate, 0.063 uM): 48
remaining activity at 0.063 µM ([3]; SC5314 lysate, 0.063 uM, read-out: FP signal, fraction of control): 25.7%
FP signal ([3]; SC5314 lysate, 111.111 nM compound): 47
FP signal (raw) ([3]; SC5314 lysate, 111.111 nM, listed as GdA): 47 and 43
FP signal (raw) ([3]; SC5314 lysate, 0.25 uM): 2
remaining activity at 0.25 µM ([3]; SC5314 lysate, 0.25 uM, read-out: FP signal, fraction of control): 1.07%
FP signal (raw) ([3]; SC5314 lysate, 333.333 nM): 33
FP signal ([3]; SC5314 lysate, 333.333 nM compound): 33
FP signal (raw) ([3]; SC5314 lysate, 0.5 uM): -7
remaining activity at 0.5 µM ([3]; SC5314 lysate, 0.5 uM, read-out: FP signal, fraction of control): -3.74%
FP signal (raw) ([3]; SC5314 lysate, 1 uM): -4
FP signal (raw) ([3]; SC5314 lysate, 1000 nM): 30
FP signal ([3]; SC5314 lysate, 1000 nM compound): 30
FP signal (raw) ([3]; SC5314 lysate, 2 uM): -6
remaining activity at 2 µM ([3]; SC5314 lysate, 2 uM, read-out: FP signal, fraction of control): -3.21%
FP signal ([3]; SC5314 lysate, 3000 nM compound): 30
FP signal (raw) ([3]; SC5314 lysate, 3000 nM, listed as GdA): 30 and 28
remaining activity at 0.008 µM [3, 7]: 91.4%
remaining activity at 0.016 µM [3, 7]: 79.1%
remaining activity at 1 µM [3, 7]: -2.14%
FP signal (raw) ([4]; Cmpd 0.002 uM, Experiments 1-3): 98
remaining activity at 0.002 µM ([4]; Cmpd 0.002 uM, Experiments 1-3, read-out: FP signal as fraction of no-compound (0 uM) control): 98%
FP signal (raw) ([4]; Cmpd 0.004 uM, Experiments 1-3): 97
remaining activity at 0.004 µM ([4]; Cmpd 0.004 uM, Experiments 1-3, read-out: FP signal as fraction of no-compound (0 uM) control): 95.5%
FP signal (raw) ([4]; Cmpd 0.008 uM, Experiments 1-3): 92
remaining activity at 0.008 µM ([4]; Cmpd 0.008 uM, Experiments 1-3, read-out: FP signal as fraction of no-compound (0 uM) control): 94.4%
remaining activity at 0.016 µM ([4]; Cmpd 0.016 uM, Experiments 1-3, read-out: FP signal as fraction of no-compound (0 uM) control): 87%
remaining activity at 0.25 µM ([4]; Cmpd 0.25 uM, Experiments 1-3, read-out: FP signal as fraction of no-compound (0 uM) control): 18.6%
FP signal (raw) ([4]; Cmpd 0.5 uM, Experiments 1-3): 18 and 19 and 10
remaining activity at 0.5 µM ([4]; Cmpd 0.5 uM, Experiments 1-3, read-out: FP signal as fraction of no-compound (0 uM) control): 10.2%
remaining activity at […] ([4]; Cmpd […], Experiments 1-3, read-out: FP signal as fraction of no-compound (0 uM) control): 71.3%

COc1ccc(CON=C2C=CC=CC3OC3CC(C)OC(=O)c3c(O)cc(O)cc3C2)cc1 (mixture of isomers) [LEB075]
FP signal (raw) ([5]; Cmpd 0.002 uM): 157
FP signal (raw) ([5]; Cmpd 0.004 uM): 159
FP signal (raw) ([5]; Cmpd 0.008 uM): 150
FP signal (raw) ([5]; Cmpd 0.016 uM): 147
FP signal (raw) ([5]; Cmpd 0.063 uM): 136
FP signal (raw) ([5]; Cmpd 0.25 uM): 109
EC50 [6, 8]: 1650 nM and 1630 nM
FP signal (raw) ([6]; Cmpd 0.002 uM): 147 and 148
FP signal as fraction of no-compound (0 uM) control ([6]; Cmpd 0.002 uM): 0.98 and 0.9737
FP signal (raw) ([6]; Cmpd 0.004 uM): 148 and 151
FP signal as fraction of no-compound (0 uM) control ([6]; Cmpd 0.004 uM): 0.9867 and 0.9934
FP signal (raw) ([6]; Cmpd 0.008 uM): 149
FP signal as fraction of no-compound (0 uM) control ([6]; Cmpd 0.008 uM): 0.9933 and 0.9803
FP signal (raw) ([6]; Cmpd 0.016 uM): 150 and 149
FP signal as fraction of no-compound (0 uM) control ([6]; Cmpd 0.016 uM): 1 and 0.9803
FP signal (raw) ([6]; Cmpd 0.063 uM): 147 and 150
FP signal as fraction of no-compound (0 uM) control ([6]; Cmpd 0.063 uM): 0.98 and 0.9868
FP signal (raw) ([6]; Cmpd 0.25 uM): 141 and 143
FP signal as fraction of no-compound (0 uM) control ([6]; Cmpd 0.25 uM): 0.94 and 0.9408
FP signal (raw) ([6]; Cmpd 0.5 uM): 130
FP signal as fraction of no-compound (0 uM) control ([6]; Cmpd 0.5 uM): 0.8667 and 0.8553
FP signal (raw) ([6]; Cmpd 1 uM): 112 and 106
FP signal as fraction of no-compound (0 uM) control ([6]; Cmpd 1 uM): 0.7067 and 0.7368
FP signal (raw) ([6]; Cmpd 2 uM): 58 and 61
FP signal as fraction of no-compound (0 uM) control ([6]; Cmpd 2 uM): 0.4067 and 0.3816
EC50 [4, 8]: 82.3 nM and 83.8 nM
FP signal (raw) ([4]; Cmpd 0.002 uM, Experiments 1-3): 109 and 127
FP signal as fraction of no-compound (0 uM) control ([4]; Cmpd 0.002 uM, Experiments 1-3): 0.6412 and 0.7471
FP signal (raw) ([4]; Cmpd 0.004 uM, Experiments 1-3): 109
FP signal as fraction of no-compound (0 uM) control ([4]; Cmpd 0.004 uM, Experiments 1-3): 0.6412 and 0.6941
FP signal (raw) ([4]; Cmpd 0.008 uM, Experiments 1-3): 101 and 104
FP signal as fraction of no-compound (0 uM) control ([4]; Cmpd 0.008 uM, Experiments 1-3): 0.5941 and 0.6118
FP signal (raw) ([4]; Cmpd 0.016 uM, Experiments 1-3): 93 and 101
FP signal as fraction of no-compound (0 uM) control ([4]; Cmpd 0.016 uM, Experiments 1-3): 0.5471 and 0.5941
FP signal (raw) ([4]; Cmpd 0.063 uM, Experiments 1-3): 72 and 79
FP signal as fraction of no-compound (0 uM) control ([4]; Cmpd 0.063 uM, Experiments 1-3): 0.4235 and 0.4647
FP signal (raw) ([4]; Cmpd 0.25 uM, Experiments 1-3): 38 and 42
FP signal as fraction of no-compound (0 uM) control ([4]; Cmpd 0.25 uM, Experiments 1-3): 0.2235 and 0.2471
FP signal (raw) ([4]; Cmpd 0.5 uM, Experiments 1-3): 24 and 26
FP signal as fraction of no-compound (0 uM) control ([4]; Cmpd 0.5 uM, Experiments 1-3): 0.1412 and 0.1529
FP signal (raw) ([4]; Cmpd 1 uM, Experiments 1-3): 15 and 17
FP signal as fraction of no-compound (0 uM) control ([4]; Cmpd 1 uM, Experiments 1-3): 0.1 and 0.08824
FP signal (raw) ([4]; Cmpd 2 uM, Experiments 1-3): 20
FP signal as fraction of no-compound (0 uM) control ([4]; Cmpd 2 uM, Experiments 1-3): 0.1176
